{"source": "paper PMC5798451", "about": "(European journal of medicinal chemistry, 2017)", "key": {"[1]": {"test_system": "HeLa", "conditions": "cited from earlier work"}, "[2]": {"test_system": "RS4; 11", "conditions": "cited from earlier work"}, "[3]": {"test_system": "Jurkat", "conditions": "cited from earlier work"}, "[4]": {"test_system": "A549", "conditions": "cited from earlier work"}, "[5]": {"test_system": "HeLa cells", "assay": "Apoptosis assay annexin-V-FITC/PI, HeLa", "type": "cell-based, human", "conditions": "for induction of apoptosis: 24 or 48 h, annexin-V-FITC/PI"}, "[6]": {"test_system": "HT-29", "conditions": "cited from earlier work"}, "[7]": {"test_system": "A549", "assay": "Apoptosis assay annexin-V-FITC/PI, A549", "type": "cell-based, human", "conditions": "A549, 24 or 48 h"}, "[8]": {"test_system": "HeLa cells", "assay": "Flow cytometric analysis of cell cycle distribution", "type": "cell-based, human", "conditions": "24 h treatment, PI flow cytometry"}, "[9]": {"test_system": "HeLa cells", "assay": "ROS production", "type": "cell-based, human", "conditions": "1 µM, starting at 12–24 h, H2-DCFDA"}, "[10]": {"test_system": "HeLa cells", "assay": "Western blot analysis of cell cycle and apoptosis proteins", "type": "cell-based, human"}, "[11]": {"test_system": "HeLa cells", "assay": "Mitochondrial membrane potential", "type": "cell-based, human", "conditions": "0.1–1.0 µM, 6-48 h, JC-1"}, "[12]": {"test_system": "panel of 7 human tumor cell lines (HeLa, A549, HT-29, MDA-MB-231, RS4; 11, Jurkat, and Kasumi-1)", "assay": "MTT antiproliferative assay, panel of 7 human tumor cell lines", "type": "cell-based", "conditions": "read-out: GI50s"}, "[13]": {"target": "bovine brain tubulin (Bos taurus, UniProt P81947+Q6B856)", "sequence (Q6B856 whole entry)": "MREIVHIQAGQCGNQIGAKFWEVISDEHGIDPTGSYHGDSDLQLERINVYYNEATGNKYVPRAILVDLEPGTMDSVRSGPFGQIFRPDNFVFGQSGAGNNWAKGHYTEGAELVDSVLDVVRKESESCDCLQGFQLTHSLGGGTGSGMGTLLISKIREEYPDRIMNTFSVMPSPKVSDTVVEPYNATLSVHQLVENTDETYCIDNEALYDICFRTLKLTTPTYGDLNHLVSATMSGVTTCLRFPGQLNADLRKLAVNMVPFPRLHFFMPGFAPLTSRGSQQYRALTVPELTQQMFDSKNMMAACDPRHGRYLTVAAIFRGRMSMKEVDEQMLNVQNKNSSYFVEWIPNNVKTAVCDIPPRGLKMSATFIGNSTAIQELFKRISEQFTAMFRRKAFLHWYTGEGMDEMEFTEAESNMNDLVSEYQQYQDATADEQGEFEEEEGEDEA", "sequence (P81947 whole entry)": "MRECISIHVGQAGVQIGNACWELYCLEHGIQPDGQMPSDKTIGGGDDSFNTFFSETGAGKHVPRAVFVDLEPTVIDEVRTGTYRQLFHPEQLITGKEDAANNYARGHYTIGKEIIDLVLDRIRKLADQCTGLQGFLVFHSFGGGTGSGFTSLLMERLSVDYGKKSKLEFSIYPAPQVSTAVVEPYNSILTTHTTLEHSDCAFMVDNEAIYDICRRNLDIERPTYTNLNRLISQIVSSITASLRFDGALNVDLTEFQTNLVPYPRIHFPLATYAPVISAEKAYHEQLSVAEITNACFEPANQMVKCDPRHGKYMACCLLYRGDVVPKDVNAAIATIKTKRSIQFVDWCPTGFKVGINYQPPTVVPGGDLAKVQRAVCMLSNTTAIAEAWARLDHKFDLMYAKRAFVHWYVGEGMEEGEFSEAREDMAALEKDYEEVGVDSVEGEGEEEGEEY", "conditions": "read-out: Inhibition of tubulin assembly IC50 ± SD; tubulin at 10 µM; ref [4]; cited from earlier work"}, "[14]": {"target": "tubulin (Bos taurus, UniProt P81947+Q6B856)", "sequence (Q6B856 whole entry)": "as the sequence (Q6B856 whole entry) above", "sequence (P81947 whole entry)": "as the sequence (P81947 whole entry) above", "conditions": "tubulin 1 µM, [3H]colchicine 5 µM; ref [4]; cited from earlier work"}}, "note": "Read-outs that look alike come from different tables or passages of the source."}
{"smiles": "COc1ccc(/C=C\\c2cc(OC)c(OC)c(OC)c2)cc1O", "note": "[CA-4, combretastatin A-4]", "values": [{"measurement": "GI50", "setting": "[1]; ref [8] and [20]", "result": "4 ± 1", "unit": "nM"}, {"measurement": "GI50", "setting": "[2]; ref [8] and [20]", "result": "0.8 ± 0.2", "unit": "nM"}, {"measurement": "GI50", "setting": "[3]; ref [8] and [20]", "result": "5 ± 0.6", "unit": "nM"}, {"measurement": "GI50", "setting": "[4]; ref [8] and [20]", "result": "180 ± 50", "unit": "nM"}, {"measurement": "apoptotic response", "setting": "[5]; 0.1 µM", "result": "strong apoptotic response"}, {"measurement": "GI50", "setting": "[6]; ref [8] and [20]", "result": "3100 ± 100", "unit": "nM"}]}
{"smiles": "CCn1ccc2c3c(=O)cc(-c4cccc5ccccc45)[nH]c3ccc21", "note": "[Compound 21, 3-ethyl-7-(naphthalen-1-yl)-3H-pyrrolo[3,2-f]quinolin-9(6H)-one]", "values": [{"measurement": "induction of apoptosis", "setting": "[7]", "result": "induced apoptosis in a time and concentration dependent manner"}, {"measurement": "induction of apoptosis", "setting": "[5]", "result": "induced apoptosis in a time and concentration dependent manner"}, {"measurement": "effect on cell cycle progression", "setting": "[8]", "result": "induced a G2/M arrest"}]}
{"smiles": "CCn1ccc2c3c(=O)cc(-c4ccc5c(c4)CCCC5)[nH]c3ccc21", "note": "[Compound 23, 3-ethyl-7-(1,2,3,4-tetrahydronaphthalen-6-yl)-3H-pyrrolo[3,2-f]quinolin-9(6H)-one]", "values": [{"measurement": "induction of apoptosis", "setting": "[7]", "result": "induced apoptosis in a time and concentration dependent manner"}, {"measurement": "induction of apoptosis", "setting": "[5]", "result": "induced apoptosis in a time and concentration dependent manner"}, {"measurement": "effect on cell cycle progression", "setting": "[8]", "result": "induced a G2/M arrest"}]}
{"smiles": "CCn1ccc2c3c(=O)cc(-c4ccc5c(c4)OCO5)[nH]c3ccc21", "note": "[Compound 24, 7-(benzo[d][1,3]dioxol-5-yl)-3-ethyl-3H-pyrrolo[3,2-f]quinolin-9(6H)-one]", "values": [{"measurement": "ROS production", "setting": "[9]", "result": "induced significant production of ROS"}, {"measurement": "expression of anti-apoptotic proteins Bcl-2 and Mcl-1", "setting": "[10]; immunoblot, 50 nM", "result": "reduced the expression"}, {"measurement": "PARP cleavage", "setting": "[10]; western blot", "result": "concentration and time-dependent cleavage of poly (ADP-Ribose) polymerase (PARP)"}, {"measurement": "cyclin B1 expression", "setting": "[10]; western blot, 24 and 48 h", "result": "increase in cyclin B1 expression"}, {"measurement": "phosphatase cdc25c expression", "setting": "[10]; western blot, 24 h", "result": "reduction in the expression of phosphatase cdc25c"}, {"measurement": "phosphorylated cdc2 kinase", "setting": "[10]; western blot, in particular after 48 h", "result": "decrease of the phosphorylated form of cdc2 kinase"}, {"measurement": "induction of apoptosis", "setting": "[7]", "result": "induced apoptosis in a time and concentration dependent manner"}, {"measurement": "mitochondrial transmembrane potential (Δψmt)", "setting": "[11]", "result": "time-dependent increase in the percentage of cells with low Δψmt"}, {"measurement": "induction of apoptosis", "setting": "[5]", "result": "induced apoptosis in a time and concentration dependent manner"}, {"measurement": "effect on cell cycle progression", "setting": "[8]", "result": "induced a G2/M arrest"}]}
{"smiles": "O=C1C=C(c2ccccc2)Nc2cccc3ccn1c23", "note": "[Compound 30, (Z)-2-phenyl-[1,4]diazepino[3,2,1-hi]indol-4(1H)-one]", "values": [{"measurement": "IC50", "setting": "[12]", "result": "> 10000", "unit": "nM"}]}
{"smiles": "CCn1ccc2c3c(=O)cc(-c4ccccc4)[nH]c3ccc21", "note": "[Compound 31, 3-ethyl-7-phenyl-3H-pyrrolo[3-2-f] quinolin-9-one]", "values": [{"measurement": "GI50", "setting": "[1]; ref [4] and [8]", "result": "11 ± 8", "unit": "nM"}, {"measurement": "GI50", "setting": "[2]; ref [4] and [8]", "result": "2 ± 0.3", "unit": "nM"}, {"measurement": "GI50", "setting": "[3]; ref [4] and [8]", "result": "0.5 ± 0.2", "unit": "nM"}, {"measurement": "GI50", "setting": "[4]; ref [4] and [8]", "result": "32 ± 1.5", "unit": "nM"}, {"measurement": "GI50", "setting": "[6]; ref [4] and [8]", "result": "32 ± 1.2", "unit": "nM"}, {"measurement": "IC50", "setting": "[13]", "result": "570 ± 20", "unit": "nM"}, {"measurement": "Inhibition of colchicine binding % Inhibition ± SD", "setting": "[14]", "result": "73 ± 0.7", "unit": "%"}]}
